Columns and labels:
[1] = biological target: T1, human 17β-HSD1 (Homo sapiens, UniProt P14061); experiment: 17β-HSD1 cell free assay (placental cytosolic enzyme, [3H]E1 to E2, HPLC radiodetection); format: biochemical; conditions: for inhibition at 1 µM / 17β-HSD1 % inhib. (1µM): inhibitor 1 µM, less than 10% = inactive, ni = no inhibition; for inhibition at 1 µM / IC50 / 17β-HSD1 % inhib. (1µM): human placenta cytosolic fraction, [3H]E1 + E1 500 nM, NADH 500 µM; for inhibition at 1 µM: read-out: 17β-HSD1 % inhib. (1µM); for IC50: mean of three determinations
T1 construct: In the cell free assay, the placental cytosolic enzyme was used; from tissue; host or cells: human placenta, cytosolic fraction, ammonium sulfate precipitate
T1 sequence (P14061 1-328): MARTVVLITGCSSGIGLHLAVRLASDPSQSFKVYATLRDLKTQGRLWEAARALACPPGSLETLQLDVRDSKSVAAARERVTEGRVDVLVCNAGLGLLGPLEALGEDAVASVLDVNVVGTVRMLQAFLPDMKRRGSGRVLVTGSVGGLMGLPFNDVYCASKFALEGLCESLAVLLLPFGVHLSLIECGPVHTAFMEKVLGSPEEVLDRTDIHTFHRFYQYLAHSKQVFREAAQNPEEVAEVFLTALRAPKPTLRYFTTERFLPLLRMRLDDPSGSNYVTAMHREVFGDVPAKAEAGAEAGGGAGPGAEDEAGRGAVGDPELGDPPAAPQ
Description: In the cell free assay, the placental cytosolic enzyme was used. Tritiated E1 (final concentration: 500 nM) was incubated with 17β-HSD1, NADH (500 µM), and inhibitor as previously described [59]. After high performance liquid chromatography (HPLC) separation of substrate and product, the amount of labeled E2 formed was quantified.
Inhibitory activities were evaluated by an established method with minor modifications. Briefly, the enzyme preparation was incubated with NADH [500 µM] in the presence of potential inhibitors at 37 °C in a phosphate buffer (50 mM) supplemented with 20 % of glycerol and EDTA (1mM). Inhibitor stock solutions were prepared in DMSO. The final concentration of DMSO was adjusted to 1 % in all samples. The enzymatic reaction was started by addition of a mixture of unlabelled- and [2, 4, 6, 7-^3H]-E1 (final concentration: 500 nM, 0.15 µCi). After 10 min, the incubation was stopped with HgCl2 and the mixture was extracted with diethylether. After evaporation, the steroids were dissolved in acetonitrile. E1 and E2 were separated using acetonitrile/water (45:55) as mobile phase in a C18 reverse phase chromatography column (Nucleodur C18 Gravity, 3 µm, Macherey-Nagel, Düren) connected to a HPLC-system (Agilent 1100 Series, Agilent Technologies, Waldbronn). Detection and quantification of the steroids were performed using a radioflow detector (Berthold Technologies, Bad Wildbad). The conversion rate was calculated after analysis of the resulting chromatograms according to the following equation: % conversion = % E2/(% E2 + % E1) × 100. Each value was calculated from at least three independent experiments.

[2] = biological target: T2, human 17β-HSD2 (Homo sapiens, UniProt P37059); experiment: 17β-HSD2 cell free assay (placental microsomal enzyme, [3H]E2 to E1, HPLC radiodetection); format: biochemical; conditions: for IC50: human placenta microsomal fraction, [3H]E2 + E2 500 nM, NAD+ 1500 µM, mean of three determinations; for SF, selectivity factor = IC50(17β-HSD2)/IC50(17β-HSD1): ratio of cell free IC50 values
T2 construct: 17β-HSD2 was obtained from the microsomal fraction; from tissue; host or cells: human placenta, microsomal fraction
T2 sequence (P37059 1-387): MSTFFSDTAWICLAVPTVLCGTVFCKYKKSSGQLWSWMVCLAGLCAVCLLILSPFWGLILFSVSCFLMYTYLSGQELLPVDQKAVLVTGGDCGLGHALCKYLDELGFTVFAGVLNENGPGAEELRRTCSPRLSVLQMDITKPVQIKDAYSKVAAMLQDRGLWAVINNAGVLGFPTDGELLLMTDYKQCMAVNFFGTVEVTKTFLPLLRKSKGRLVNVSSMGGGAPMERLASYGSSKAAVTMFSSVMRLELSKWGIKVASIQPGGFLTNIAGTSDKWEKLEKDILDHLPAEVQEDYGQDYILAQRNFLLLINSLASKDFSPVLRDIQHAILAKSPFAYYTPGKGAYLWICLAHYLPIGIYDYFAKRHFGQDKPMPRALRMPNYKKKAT
Description: Placental microsomal 17β-HSD2 was incubated with tritiated E2 (final concentration: 500 nM) in the presence of NAD^+ (1500 µM) and inhibitor. Separation and quantification of labeled substrate (E2) and product (E1) was performed by HPLC using radiodetection.
17β-HSD1 and 17β-HSD2 were obtained from human placenta according to previously described procedures. Fresh human placenta was homogenized and cytosolic fraction and microsomes were separated by centrifugation. For the partial purification of 17β-HSD1, the cytosolic fraction was precipitated with ammonium sulfate. 17β-HSD2 was obtained from the microsomal fraction.
Inhibition of 17β-HSD2. The 17β-HSD2 inhibition assay was performed similarly to the 17β-HSD1 procedure. The microsomal fraction was incubated with NAD^+ [1500 µM], test compound and a mixture of unlabelled- and [2, 4, 6, 7-^3H]-E2 (final concentration: 500 nM, 0.11 µCi) for 20 min at 37 °C. Further treatment of the samples and HPLC separation were carried out as mentioned above.
The conversion rate was calculated after analysis of the resulting chromatograms according to the following equation: % conversion = % E1/(% E1 + % E2) × 100.

[3] = tested on: ERs; set-up: method as in PMID 15743715, PMID 16728493; conditions: RBA(E2) = 100%; cited from earlier work
[4] = tested on: 17β-HSD1; set-up: method as in PMID 12223444; conditions: recombinant protein, NADPH as cosubstrate; value as described; read-out: 17β-HSD1 IC50 (external reference); cited from earlier work

Row | inhibition at 1 µM [1] [%] | 17β-HSD1 % inhib. (1µM) [1] | Structure (SMILES) | also measured
1 | 34 | – | Cc1nc(C(=O)c2cccc(O)c2)sc1CCO [Compound 5, [5-(2-hydroxyethyl)-4-methyl-1,3-thiazol-2-yl](3-hydroxyphenyl)methanone] | –
2 | 91 | – | O=C(c1cccc(O)c1)c1nc2ccc(O)cc2s1 [Compound 6, (6-hydroxy-1,3-benzothiazol-2-yl)(3-hydroxyphenyl)methanone] | IC50 [2]: 1.03 µM; SF, selectivity factor = IC50(17β-HSD2)/IC50(17β-HSD1) [2]: 24; IC50 [1]: 0.044 µM
3 | – | ni. | COc1cccc(C(=O)c2nc3ccc(OC)cc3s2)c1 [Compound 6i] | –
4 | 28 | – | Oc1cccc(C(O)c2nc3ccc(O)cc3s2)c1 (stereo not shown) [Compound 7] | –
5 | 13 | – | COC(c1cccc(O)c1)c1nc2ccc(O)cc2s1 (stereo not shown) [Compound 8] | –
6 | 7 | ni | CSC(c1ccc(O)cc1)c1nc2ccc(O)cc2s1 (stereo not shown) [Compound 9] | –
7 | – | ni | COc1ccc2nc(Cc3ccc(O)cc3)sc2c1 [Compound 10] | –
8 | 24 | – | Oc1ccc(Cc2nc3ccc(O)cc3s2)cc1 [Compound 11] | –
9 | 75 | – | O=C(c1cccc(O)c1)c1nc2ccccc2s1 [Compound 12, 1,3-benzothiazol-2-yl(3-hydroxyphenyl)methanone] | IC50 [2]: 1.36 µM; SF, selectivity factor = IC50(17β-HSD2)/IC50(17β-HSD1) [2]: 4; fold lower 17β-HSD1 inhibitory activity than 6 ([1]; compared with compound 6): 8 fold; IC50 [1]: 0.365 µM
10 | 27 | – | COc1ccc(C(=O)c2nc3ccc(O)cc3s2)cc1 [Compound 13, (6-hydroxy-1,3-benzothiazol-2-yl)(4-methoxyphenyl)methanone] | –
11 | 85 | – | O=C(c1ccc(O)cc1)c1nc2ccc(O)cc2s1 [Compound 14, (6-hydroxy-1,3-benzothiazol-2-yl)(4-hydroxyphenyl)methanone] | IC50 [2]: 2.47 µM; SF, selectivity factor = IC50(17β-HSD2)/IC50(17β-HSD1) [2]: 10; IC50 [1]: 0.243 µM
12 | – | ni | COc1ccc2nc(C(=O)Nc3ccccc3O)sc2c1 [Compound 15] | –
13 | – | ni | O=C(Nc1ccccc1O)c1nc2ccc(O)cc2s1 [Compound 16] | –
14 | 31 | – | COc1ccc2nc(C(=O)Nc3cccc(O)c3)sc2c1 [Compound 17] | –
15 | 40 | – | O=C(Nc1cccc(O)c1)c1nc2ccc(O)cc2s1 [Compound 18] | IC50 [2]: 3.81 µM; SF, selectivity factor = IC50(17β-HSD2)/IC50(17β-HSD1) [2]: 3; IC50 [1]: 1.31 µM
16 | – | ni. | COc1ccc(C(=O)Nc2nc3ccc(O)cc3s2)cc1 [Compound 19] | –
17 | 39 | – | O=C(Nc1nc2ccc(O)cc2s1)c1ccc(O)cc1 [Compound 20] | –
18 | 83 | – | O=C(Nc1nc2ccc(O)cc2s1)c1cccc(O)c1 [Compound 21] | IC50 [2]: 9.26 µM
19 | – | inactive and ni | O=S(=O)(Nc1nc2ccc(O)cc2s1)c1cccc(O)c1 [Compound 22] | –
20 | – | inactive and no inhibition and ni. | O=C(Nc1cccc(O)c1)Nc1nc2ccc(O)cc2s1 [Compound 23] | –
21 | 62 | moderate inhibitory activity | Oc1cccc(NC(=S)Nc2nc3ccc(O)cc3s2)c1 [Compound 24] | –
22 | – | inactive and ni | O=C(Cc1cccc(O)c1)Nc1nc2ccc(O)cc2s1 [Compound 25] | –
23 | – | – | C[C@]12CC[C@@H]3c4ccc(O)cc4CC[C@H]3[C@@H]1CCC2=O [Compound E1, estrone] | RBA for the ERs [3]: about 10%
24 | – | – | C[C@]12CC[C@@H]3c4ccc(O)cc4CC[C@H]3[C@@H]1C[C@H](CCCCCCCCC(=O)OCC1OC(n3cnc4c(N)ncnc43)C(O)C1O)[C@@H]2O (stereo partly shown) [EM-1745] | IC50 [4]: 0.052 µM

— paper PMC3252304, “Hydroxybenzothiazoles as New Nonsteroidal Inhibitors of 17β-Hydroxysteroid Dehydrogenase Type 1 (17β-HSD1)” (PLoS ONE, 2012)
